ChEMBL document CHEMBL1201862, “PubChem BioAssay data set” (2004)
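Values below derive from 48-hour exposures of cells grown in 96-well plates, with endpoints linearly interpolated between the two concentrations bracketing the appropriate inhibition level. GI50 marks 50% less growth.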 Activity calls are given as the source filed them. No stated cut-off is given here; in the data, active = GI50 up to about 1.1 µM and inactive = higher.

What was measured:
Assay in all cases: DTP human tumour cell line panel, 48 h
786-0 = system: 786-0
A498 = system: A498
A549 = system: A549
ACHN = system: ACHN
BT-549 = system: BT-549
CAKI-1 = system: CAKI-1
CCRF-CEM = system: CCRF-CEM
COLO 205 = system: COLO 205
DU-145 = system: DU-145
EKVX = system: EKVX
HCC 2998 = system: HCC 2998
HCT-116 = system: HCT-116
HCT-15 = system: HCT-15
HL-60 = system: HL-60
HOP-62 = system: HOP-62
HT-29 = system: HT-29
Hs-578T = system: Hs-578T
IGROV-1 = system: IGROV-1
K562 = system: K562
KM12 = system: KM12
LOX IMVI = system: LOX IMVI
M14 = system: M14
MCF7 = system: MCF7
MDA-MB-231 = system: MDA-MB-231
MDA-MB-435 = system: MDA-MB-435
MDA-N = system: MDA-N
MOLT-4 = system: MOLT-4
Malme-3M = system: Malme-3M
NCI-H226 = system: NCI-H226
NCI-H23 = system: NCI-H23
NCI-H460 = system: NCI-H460
NCI-H522 = system: NCI-H522
NCI/ADR-RES = system: NCI/ADR-RES
OVCAR-3 = system: OVCAR-3
OVCAR-4 = system: OVCAR-4
OVCAR-5 = system: OVCAR-5
OVCAR-8 = system: OVCAR-8
PC-3 = system: PC-3
RPMI-8226 = system: RPMI-8226
RXF 393 = system: RXF 393
SF-268 = system: SF-268
SF-295 = system: SF-295
SK-MEL-28 = system: SK-MEL-28
SK-MEL-2 = system: SK-MEL-2
SK-OV-3 = system: SK-OV-3
SN12C = system: SN12C
SNB-19 = system: SNB-19
SNB-75 = system: SNB-75
SW-620 = system: SW-620
T47D = system: T47D
TK-10 = system: TK-10
U-251 = system: U-251
UACC-257 = system: UACC-257
UACC-62 = system: UACC-62
HOP-92 = system: HOP-92
SF-539 = system: SF-539
SK-MEL-5 = system: SK-MEL-5
UO-31 = system: UO-31

With `CCOC(=O)/C(C(=O)Nc1ccc(F)cc1)=C(/N)N1CCOCC1` the GI50 (786-0) was > 100 µM (inactive), the GI50 (A498) was > 100 µM (inactive) and the GI50 (A549) was > 100 µM (inactive). For the same molecule, the GI50 (ACHN) was > 100 µM (inactive), the GI50 (BT-549) was > 100 µM (inactive) and the GI50 (CAKI-1) was > 100 µM (inactive). For the same molecule, the GI50 (CCRF-CEM) was > 100 µM (inactive), the GI50 (COLO 205) was > 100 µM (inactive) and the GI50 (DU-145) was > 100 µM (inactive). The GI50 (EKVX) was > 100 µM (inactive), the GI50 (HCC 2998) was > 100 µM (inactive) and the GI50 (HCT-116) was > 100 µM (inactive). The GI50 (HCT-15) was > 100 µM, the GI50 (HL-60) was > 100 µM (inactive) and the GI50 (HOP-62) was > 100 µM (inactive). For the same molecule, the GI50 (HT-29) was > 100 µM (inactive), the GI50 (Hs-578T) was > 100 µM (inactive) and the GI50 (IGROV-1) was > 100 µM (inactive). The GI50 (K562) was > 100 µM (inactive), the GI50 (KM12) was > 100 µM (inactive) and the GI50 (LOX IMVI) was > 100 µM (inactive). For the same molecule, the GI50 (M14) was > 100 µM (inactive), the GI50 (MCF7) was > 100 µM (inactive) and the GI50 (MDA-MB-231) was > 100 µM (inactive). For the same molecule, the GI50 (MDA-MB-435) was > 100 µM (inactive), the GI50 (MDA-N) was > 100 µM (inactive) and the GI50 (MOLT-4) was > 100 µM (inactive). For the same molecule, the GI50 (Malme-3M) was > 100 µM (inactive), the GI50 (NCI-H226) was > 100 µM (inactive) and the GI50 (NCI-H23) was > 100 µM (inactive). The GI50 (NCI-H460) was > 100 µM (inactive), the GI50 (NCI-H522) was > 100 µM (inactive) and the GI50 (NCI/ADR-RES) was > 100 µM (inactive). For the same molecule, the GI50 (OVCAR-3) was > 100 µM (inactive), the GI50 (OVCAR-4) was > 100 µM (inactive) and the GI50 (OVCAR-5) was > 100 µM (inactive). For the same molecule, the GI50 (OVCAR-8) was > 100 µM (inactive), the GI50 (PC-3) was > 100 µM (inactive) and the GI50 (RPMI-8226) was > 100 µM (inactive). The GI50 (RXF 393) was > 100 µM (inactive), the GI50 (SF-268) was > 100 µM (inactive) and the GI50 (SF-295) was > 100 µM (inactive). The GI50 (SK-MEL-28) was > 100 µM (inactive), the GI50 (SK-MEL-2) was > 100 µM (inactive) and the GI50 (SK-OV-3) was > 100 µM (inactive). The GI50 (SN12C) was > 100 µM (inactive), the GI50 (SNB-19) was > 100 µM (inactive) and the GI50 (SNB-75) was > 100 µM (inactive). For the same molecule, the GI50 (SW-620) was > 100 µM (inactive), the GI50 (T47D) was > 100 µM (inactive) and the GI50 (TK-10) was > 100 µM (inactive). The GI50 (U-251) was > 100 µM (inactive), the GI50 (UACC-257) was > 100 µM (inactive) and the GI50 (UACC-62) was > 100 µM (inactive).
With `COc1cc(/C=C2\C[C@H]3[C@@H]4CC=C5C[C@@H](O)CC[C@]5(C)[C@H]4CC[C@]3(C)C2=O)cc(OC)c1OC` the GI50 (786-0) was 26.6 µM (inactive), the GI50 (A498) was 51.6 µM (inactive) and the GI50 (A549) was 13.2 µM (inactive). For the same molecule, the GI50 (ACHN) was 30.5 µM (inactive), the GI50 (BT-549) was 33.4 µM (inactive) and the GI50 (CAKI-1) was 36.9 µM (inactive). For the same molecule, the GI50 (COLO 205) was 20.7 µM (inactive), the GI50 (DU-145) was 39.1 µM (inactive) and the GI50 (EKVX) was 33.5 µM (inactive). The GI50 (HCC 2998) was 27.6 µM (inactive), the GI50 (HCT-116) was 20.1 µM (inactive) and the GI50 (HCT-15) was 22.1 µM. The GI50 (HL-60) was 0.366 µM (active), the GI50 (HOP-62) was 26.4 µM (inactive) and the GI50 (HOP-92) was 30.3 µM (inactive). For the same molecule, the GI50 (HT-29) was 19.9 µM (inactive), the GI50 (Hs-578T) was 40.6 µM (inactive) and the GI50 (IGROV-1) was 64.1 µM (inactive). The GI50 (K562) was 12.2 µM (inactive), the GI50 (KM12) was 27.2 µM (inactive) and the GI50 (LOX IMVI) was 22 µM (inactive). For the same molecule, the GI50 (M14) was 24.4 µM (inactive), the GI50 (MCF7) was 20.8 µM (inactive) and the GI50 (MDA-MB-231) was 26.4 µM (inactive). The GI50 (MDA-MB-435) was 29.8 µM (inactive), the GI50 (MDA-N) was 29.1 µM (inactive) and the GI50 (MOLT-4) was 16.3 µM (inactive). For the same molecule, the GI50 (Malme-3M) was 32.7 µM (inactive), the GI50 (NCI-H226) was 31.4 µM (inactive) and the GI50 (NCI-H23) was 35.3 µM (inactive). The GI50 (NCI-H460) was 27.4 µM (inactive), the GI50 (NCI-H522) was 16.9 µM (inactive) and the GI50 (NCI/ADR-RES) was 27.5 µM (inactive). The GI50 (OVCAR-3) was 26.2 µM (inactive), the GI50 (OVCAR-4) was 39.4 µM (inactive) and the GI50 (OVCAR-5) was 39.6 µM (inactive). For the same molecule, the GI50 (OVCAR-8) was 34.6 µM (inactive), the GI50 (PC-3) was 28.1 µM (inactive) and the GI50 (RPMI-8226) was 6.98 µM (inactive). The GI50 (RXF 393) was 19.6 µM (inactive), the GI50 (SF-268) was 51.5 µM (inactive) and the GI50 (SF-295) was 19 µM (inactive). The GI50 (SF-539) was 49 µM (inactive), the GI50 (SK-MEL-28) was 45.7 µM (inactive) and the GI50 (SK-MEL-2) was 28.8 µM (inactive). For the same molecule, the GI50 (SK-MEL-5) was 12.5 µM (inactive), the GI50 (SK-OV-3) was 53.1 µM (inactive) and the GI50 (SN12C) was 26.1 µM (inactive). For the same molecule, the GI50 (SNB-19) was 27.7 µM (inactive), the GI50 (SNB-75) was 30.6 µM (inactive) and the GI50 (SW-620) was 39.6 µM (inactive). For the same molecule, the GI50 (T47D) was 12.6 µM (inactive), the GI50 (TK-10) was 37.2 µM (inactive) and the GI50 (U-251) was 32.1 µM (inactive). For the same molecule, the GI50 (UACC-257) was 29.2 µM (inactive), the GI50 (UACC-62) was 37.1 µM (inactive) and the GI50 (UO-31) was 17.5 µM (inactive).
